Results: patent publication US20260008793A1, “IONIZABLE CATIONIC LIPIDS INCORPORATING SILICON” (ALDEXCHEM KFT., priority 2022, published 2026)

Assays:
[1] = LNP size, PDI and zeta potential by Dynamic Light Scattering (Method A); type: physicochemical; settings: LNP formulated by Method A; for Zeta potential (mV): 1xPBS pH 7.4; for PDI / Size (nm): DLS; for Size (nm): Luciferase-mRNA loaded
Outline: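 Dynamic light scattering gave particle size, PDI and zeta potential of the LNPs. These were made by microfluidic mixing, 3:1 aqueous to ethanol, of mRNA in 10 mM citrate pH 4.0 with a lipid master mix carrying the ionizable lipid, then dialysed through 100 kDa MWCO tubing.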

HeLa cells = experiment: Transfection efficiency with Luciferase-mRNA, Nano-Glo assay (Method A); type: cell-based; settings: 100 ng Luciferase (SecNLuc) mRNA, 24 h, luminescence; further: unit not given here
Outline: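 Luminescence of secreted NanoLuc in culture medium, read ~3 min after Nano-Glo reagent, reports transfection. HeLa cells grown to ~80% confluence got 100/50/10 ng mRNA per well as LNPs for 24 h, with a parallel resazurin toxicity readout.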

Row | SMILES | Zeta potential (mV) [1] | PDI [1] | Size (nm) [1] | Transfection* (Method A = 100 ng mRNA) (HeLa cells)
1 | CCCCCCCCOC(CCCCCN(CCCCO)CCCCCCOC(=O)C(CCCCCCCC)SCCCCC)O[Si](C)(C)CCCCCCCC (stereo not drawn) [Example 177, 6-((6-((dimethyl(octyl)silyl)oxy)-6-(octyloxy)hexyl)(4-hydroxybutyl)amino)hexyl 2-(pentylthio)decanoate] | −14.50 mV | 0.100 | 166 nm | 691264
2 | CCCCCCCCOC(CCCCCCC)O[Si](C)(C)OCCCCCN(CCCCO)CCCCCCOC(=O)C(CCCCCC)CCCCCCCC (stereo not drawn) [Example 146, 16-heptyl-7-(4-hydroxybutyl)-14,14-dimethyl-13,15,17-trioxa-7-aza-14-silapentacosyl 2-hexyldecanoate] | −11.0 mV | 0.07 | 116.7 nm | 5015757
3 | CCCCCCCCC(CCCCCC)C(=O)OCCCCCCN(CCCCO)CCCCCCO[Si](C)(C)OC(CCCCCCC)OCCCCCCC (stereo not drawn) [Example 140, 17-heptyl-7-(4-hydroxybutyl)-15,15-dimethyl-14,16,18-trioxa-7-aza-15-silapentacosyl 2-hexyldecanoate] | −4.5 mV | 0.05 | 130.8 nm | 6292223
4 | CCCCCCCCCCSC(CCCC)C(=O)OCCCCCCN(CCCCO)CCCCCC(OCCCCCCCC)O[Si](C)(C)OCC(CCCCCC)CCCCCCCC (stereo not drawn) [Example 174, 18-hexyl-7-(4-hydroxybutyl)-15,15-dimethyl-13-(octyloxy)-14,16-dioxa-7-aza-15-silahexacosyl 2-(decylthio)hexanoate] | −15.5 mV | 0.159 | 222.6 nm | 2292920
5 | CC/C=C\C/C=C\C/C=C\C/C=C\C/C=C\CCCCN(CCCCO)CCCCCCO[Si](C)(C)OC(CCCCCCC)OCCCCCCCC (stereo not drawn) [Example 205, 15-heptyl-5-((5Z,8Z,11Z,14Z,17Z)-icosa-5,8,11,14,17-pentaen-1-yl)-13,13-dimethyl-12,14,16-trioxa-5-aza-13-silatetracosan-1-ol] | −13.13 mV | 0.077 | 197.2 nm | 95124
6 | CCCCCCCCOC(CCCCCN(CCO)CCCCCCCC(=O)OC(CCCCCCCC)CCCCCCCC)O[Si](C)(C)O[Si](C)(C)CCCCCCCC (stereo not drawn) [Example 191, heptadecan-9-yl 8-((2-hydroxyethyl)(6-(octyloxy)-6-((1,1,3,3-tetramethyl-3-octyldisiloxaneyl)oxy)hexyl)amino)octanoate] | −10.35 mV | 0.05 | 159.4 nm | 34867
7 | CCCCCCCCSC(CCCCCCC)O[Si](C)(C)OCCCCCCN(CCCCO)CCCCCCOC(=O)C(CCCCCC)CCCCCCCC (stereo not drawn) [Example 147, 17-heptyl-7-(4-hydroxybutyl)-15,15-dimethyl-14,16-dioxa-18-thia-7-aza-15-silahexacosyl 2-hexyldecanoate] | −7.5 mV | 0.14 | 146.8 nm | 4302243
8 | CCCCCCCCOC(CCCCCN(CCO)CCCCCCCC(=O)OC(CCCCCCCC)CCCCCCCC)O[Si](C)(C)O[Si](C)(C)OCCCCCCCC (stereo not drawn) [Example 192, heptadecan-9-yl 8-((2-hydroxyethyl)(6-(octyloxy)-6-((1,1,3,3-tetramethyl-3-(octyloxy)disiloxaneyl)oxy)hexyl)amino)octanoate] | −12.28 mV | 0.042 | 175.0 nm | 11507
9 | CCCCCCCCC(CCCCCC)CO[Si](C)(C)OC(CCCCCCC)OCCCCCCN(CCCCO)CCC[C@@H](C)C1CCC2C3CCC4C[C@H](OC)CC[C@]4(C)C3CC[C@@]21C (stereo partly drawn) [Example 223, 13-heptyl-18-hexyl-5-((4R)-4-((3R,10S,13R)-3-methoxy-10,13-dimethylhexadecahydro-1H-cyclopenta[a]phenanthren-17-yl)pentyl)-15,15-dimethyl-12,14,16-trioxa-5-aza-15-silahexacosan-1-ol] | −13.68 mV | 0.15 | 206.5 nm | 2167625
10 | CCCCCCCCC(CCCCCC)C(=O)OCCCCCCN(CCCCO)CCCCCCOC(CCCCCCC)O[Si](C)(C)O[Si](C)(C)CCCCCCCC (stereo not drawn) [Example 133, 15-heptyl-7-(4-hydroxybutyl)-17,17,19,19-tetramethyl-14,16,18-trioxa-7-aza-17,19-disilaheptacosyl 2-hexyldecanoate] | −10.68 mV | 0.039 | 135.7 nm | 73879.5
11 | CCCCCCCCC(CCCCCC)C(=O)OCCCCCCN(CCCCO)CCCCCCOC(=O)C(CCCCCC)CCCCCCCC (stereo not drawn) [ALC-0315, reference compound] | −11.12 mV | 0.113 | 172.6 nm | 836793
12 | CCCCCCCCCCOC(CCCCC)O[Si](C)(C)OCCCCCCN(CCCCO)CCCCCCOC(=O)C(CCCCCC)CCCCCCCC (stereo not drawn) [Example 145, 7-(4-hydroxybutyl)-15,15-dimethyl-17-pentyl-14,16,18-trioxa-7-aza-15-silaoctacosyl 2-hexyldecanoate] | −7.7 mV | 0.16 | 143.3 nm | 5735227
13 | CCCCCCCCOC(CCCCCN(CCCCO)CCCCCCOC(=O)C(CCCCCC)CCCCCCCC)O[Si](C)(C)OCCCCCCCC (stereo not drawn) [Example 130, 7-(4-hydroxybutyl)-15,15-dimethyl-13-(octyloxy)-14,16-dioxa-7-aza-15-silatetracosyl 2-hexyldecanoate] | −11.85 mV | 0.418 | 587.6 nm | 428552
14 | CC/C=C\C/C=C\C/C=C\C/C=C\C/C=C\CCCCN(CCCCO)CCCCCC(OCCCCCCCC)O[Si](C)(C)O[Si](C)(C)OCCCCCCCC (stereo not drawn) [Example 200, 4-(((5Z,8Z,11Z,14Z,17Z)-icosa-5,8,11,14,17-pentaen-1-yl)(6-(octyloxy)-6-((1,1,3,3-tetramethyl-3-(octyloxy)disiloxaneyl)oxy)hexyl)amino)butan-1-ol] | −13.03 mV | 0.089 | 155.1 nm | 225921
15 | CCCCCCCCC(CCCCCC)CO[Si](C)(C)OC(CCCCCCC)OCCCCCCN(CCCCO)CCCCCCOC(=O)C(CCCCCC)CCCCCCCC (stereo not drawn) [Example 137, 15-heptyl-20-hexyl-7-(4-hydroxybutyl)-17,17-dimethyl-14,16,18-trioxa-7-aza-17-silaoctacosyl 2-hexyldecanoate] | −16.61 mV | 0.096 | 169.2 nm | 1713925
16 | CCCCCCCCOC(CCCCCCC)O[Si](C)(C)CCCCCCN(CCCCO)CCCCCC[Si](C)(C)OC(CCCCCCC)OCCCCCCCC (stereo not drawn) [Example 113, 5-(6-(dimethyl((1-(octyloxy)octyl)oxy)silyl)hexyl)-14-heptyl-12,12-dimethyl-13,15-dioxa-5-aza-12-silatricosan-1-ol] | −5.00 mV | 0.11 | 174.6 nm | 200295
17 | CCCCCCCCOC(CCCCCN(CCCCO)CCCCCCOC(=O)C(CCCCCCCC)SCCCCC)O[Si](C)(C)OCC(CCCCCC)CCCCCCCC (stereo not drawn) [Example 185, 18-hexyl-7-(4-hydroxybutyl)-15,15-dimethyl-13-(octyloxy)-14,16-dioxa-7-aza-15-silahexacosyl 2-(pentylthio)decanoate] | −16.4 mV | 0.04 | 213.6 nm | 1019830
18 | CCCCCCCCC(SCCCCC)C(=O)OCCCCCCN(CCCCO)CCCCCCOC(CCCCCCC)O[Si](C)(C)CCCCCCCC (stereo not drawn) [Example 178, 15-heptyl-7-(4-hydroxybutyl)-17,17-dimethyl-14,16-dioxa-7-aza-17-silapentacosyl 2-(pentylthio)decanoate] | −13.00 mV | 0.058 | 209.9 nm | 557798
19 | CCCCCCCCOC(CCCCCN(CCCCO)CCC[C@@H](C)C1CCC2C3CCC4C[C@H](OC)CC[C@]4(C)C3CC[C@@]21C)O[Si](C)(C)CCCCCCCC (stereo partly drawn) [Example 214, 4-((6-((dimethyl(octyl)silyl)oxy)-6-(octyloxy)hexyl)((4R)-4-((3R,10S,13R)-3-methoxy-10,13-dimethylhexadecahydro-1H-cyclopenta[a]phenanthren-17-yl)pentyl)amino)butan-1-ol] | −13.59 mV | 0.14 | 191.2 nm | 318542
20 | CCCCCCCCOC(CCCCCCC)O[Si](C)(C)CCCCCCN(CCCCO)CCCCCCOC(=O)C(CCCCCC)CCCCCCCC (stereo not drawn) [Example 138, 16-heptyl-7-(4-hydroxybutyl)-14,14-dimethyl-15,17-dioxa-7-aza-14-silapentacosyl 2-hexyldecanoate] | −16.19 mV | 0.104 | 211.7 nm | 1216014
21 | CC/C=C\C/C=C\C/C=C\C/C=C\C/C=C\CCCCN(CCCCO)CCCCCC(OCCCCCCCC)O[Si](C)(C)OCC(CCCCCC)CCCCCCCC (stereo not drawn) [Example 202, 16-hexyl-5-((5Z,8Z,11Z,14Z,17Z)-icosa-5,8,11,14,17-pentaen-1-yl)-13,13-dimethyl-11-(octyloxy)-12,14-dioxa-5-aza-13-silatetracosan-1-ol] | −10.0 mV | 0.072 | 154.8 nm | 37442
